Experimental data: ChEMBL document CHEMBL1201862, “PubChem BioAssay data set” (2004)
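Where inhibition never reached the appropriate level, the endpoint shown equals the highest concentration tested. Otherwise, values were interpolated linearly from a five-concentration, 48-hour dose response in 96-well plates. The concentration for 50% growth inhibition is given as GI50.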 Active and inactive are the calls of the source. No stated cut-off is given here; in the data, active = GI50 up to about 1.1 µM and inactive = higher.

Tests used:
Experiment in all cases: NCI anticancer screen, dose series, 48 h
[1] = test system: UO-31
[2] = test system: OVCAR-3
[3] = test system: SR
[4] = test system: EKVX
[5] = test system: SF-268
[6] = test system: HOP-62
[7] = test system: COLO 205
[8] = test system: SNB-75
[9] = test system: OVCAR-4
[10] = test system: UACC-62
[11] = test system: LOX IMVI
[12] = test system: CAKI-1
[13] = test system: KM12
[14] = test system: ACHN
[15] = test system: SK-MEL-2
[16] = test system: SN12C
[17] = test system: SF-539

| Structure (SMILES) | GI50 [1] | GI50 [2] | GI50 [3] | GI50 [4] | GI50 [5] | GI50 [6] | GI50 [7] | GI50 [8] | GI50 [9] | GI50 [10] | GI50 [11] | GI50 [12] | GI50 [13] | GI50 [14] | GI50 [15] | GI50 [16] | GI50 [17] |
| --- | --- | --- | --- | --- | --- | --- | --- | --- | --- | --- | --- | --- | --- | --- | --- | --- | --- |
| Cc1cc(C)c(C(=O)O)c(N)c1O | > 100 µM (inactive) | > 100 µM (inactive) | > 100 µM (inactive) | > 100 µM (inactive) | > 100 µM (inactive) | > 100 µM (inactive) | > 100 µM (inactive) | > 100 µM (inactive) | > 100 µM (inactive) | > 100 µM (inactive) | > 100 µM (inactive) | > 100 µM (inactive) | > 100 µM (inactive) | > 100 µM (inactive) | > 100 µM (inactive) | > 100 µM (inactive) |  |
| NC(=O)C(=O)CC(=O)c1ccccc1NC1=CC(=O)C(=O)c2ccccc21 | > 68.5 µM (inactive) | 26.7 µM (inactive) |  | > 100 µM (inactive) | > 40.8 µM (inactive) | > 100 µM (inactive) | > 100 µM (inactive) | > 88.3 µM (inactive) | 19.2 µM (inactive) | 40.6 µM (inactive) | 14 µM (inactive) | > 100 µM (inactive) | 54.3 µM (inactive) | > 87.9 µM (inactive) | 65.8 µM (inactive) | 51.6 µM (inactive) | > 100 µM (inactive) |
| Cc1cc(N(CCC#N)CCC#N)ccc1/N=N/c1ccccc1[N+](=O)[O-] | > 100 µM (inactive) | > 100 µM (inactive) |  | > 100 µM (inactive) | > 100 µM (inactive) | 43.6 µM (inactive) | > 100 µM (inactive) | 34 µM (inactive) | > 100 µM (inactive) | > 100 µM (inactive) | > 100 µM (inactive) | > 100 µM (inactive) | > 100 µM (inactive) | > 100 µM (inactive) | > 100 µM (inactive) | > 100 µM (inactive) | > 100 µM (inactive) |
| COc1cc([C@@H]2c3cc4c(cc3[C@@H](NCc3ccc(C#N)cc3)C3COC(=O)[C@@H]32)OCO4)cc(OC)c1O (some centres not stated) | 1.61 µM (inactive) | 2.16 µM (inactive) |  | 1.98 µM (inactive) | 1.25 µM (inactive) | 0.31 µM (active) | 0.948 µM (active) | 0.628 µM (active) | 20.8 µM (inactive) | 0.55 µM (active) | 0.778 µM (active) | 1.26 µM (inactive) | 1.4 µM (inactive) | 0.272 µM (active) | 3.27 µM (inactive) | 0.414 µM (active) | 0.877 µM (active) |
| Oc1cc(-c2cccs2)nc2cc3c(cc12)OCO3 | 4.69 µM (inactive) | 4.63 µM (inactive) | 4.73 µM (inactive) | > 62.7 µM (inactive) | 6.43 µM (inactive) | 3.96 µM (inactive) | 9.06 µM (inactive) | 1.41 µM (inactive) |  | 2.92 µM (inactive) | 4.92 µM (inactive) |  | 2.45 µM (inactive) | 7.31 µM (inactive) | 4.99 µM (inactive) | 6.76 µM (inactive) | 3.7 µM (inactive) |
| NCCNCc1c2ccccc2c(CNCCN)c2ccccc12 | 49.4 µM (inactive) | 18.2 µM (inactive) | 4.18 µM (inactive) | 20.2 µM (inactive) | 7.98 µM (inactive) | 24.3 µM (inactive) | 8.17 µM (inactive) |  | > 10 µM (inactive) | 22 µM (inactive) |  |  | 15.3 µM (inactive) | 34.8 µM (inactive) | 14.5 µM (inactive) | 10.5 µM (inactive) | 12.2 µM (inactive) |
| Cc1cnc2ccc(C)c([N+](=O)[O-])c2c1NCCCN(C)C | 27.2 µM (inactive) | > 100 µM (inactive) | > 100 µM (inactive) | > 100 µM (inactive) | > 100 µM (inactive) | > 100 µM (inactive) | 76.2 µM (inactive) |  | > 100 µM (inactive) |  | > 100 µM (inactive) | > 100 µM (inactive) | > 100 µM (inactive) | > 100 µM (inactive) | > 100 µM (inactive) | > 100 µM (inactive) | > 100 µM (inactive) |
| COc1ccc2c3c(c(C(=O)O)oc13)C(CCC(=O)O)CC2 (configuration not stated) |  | > 100 µM (inactive) |  | > 100 µM (inactive) |  | > 100 µM (inactive) | > 100 µM (inactive) | > 100 µM (inactive) | > 100 µM (inactive) | > 100 µM (inactive) | > 100 µM (inactive) | > 100 µM (inactive) |  | > 100 µM (inactive) |  | > 100 µM (inactive) | > 100 µM (inactive) |
| CCCCCCCCSC(=O)NCCCC | 19.6 µM (inactive) | 41.3 µM (inactive) |  | 27.8 µM (inactive) | 35.8 µM (inactive) |  | 54.6 µM (inactive) | 24.6 µM (inactive) | 33.5 µM (inactive) | 43 µM (inactive) | 19.9 µM (inactive) | 36.1 µM (inactive) | 51.8 µM (inactive) | 34.7 µM (inactive) | 17.7 µM (inactive) | 33 µM (inactive) | 74 µM (inactive) |
| CC1=C(C(=O)Nc2ccc([N+](=O)[O-])cc2)C(c2ccccc2O)C(C(=O)Nc2ccc([N+](=O)[O-])cc2)=C(C)N1 | 15.2 µM (inactive) | 20.5 µM (inactive) |  | 23.1 µM (inactive) | 19.1 µM (inactive) | 14.1 µM (inactive) | 17.5 µM (inactive) | 25.8 µM (inactive) | 23.7 µM (inactive) |  | 16.1 µM (inactive) | 21.4 µM (inactive) | 20.2 µM (inactive) | 13.8 µM (inactive) | 15.6 µM (inactive) | 19.6 µM (inactive) | 22.1 µM (inactive) |
| CCOC(=O)/C(C#N)=C/c1[nH]c(C)c(C)c1C | > 100 µM (inactive) | > 100 µM (inactive) |  | > 100 µM (inactive) | > 100 µM (inactive) | > 100 µM (inactive) | > 100 µM (inactive) | > 100 µM (inactive) | > 100 µM (inactive) | > 100 µM (inactive) | > 100 µM (inactive) | > 100 µM (inactive) | > 100 µM (inactive) |  | > 100 µM (inactive) | > 100 µM (inactive) | > 100 µM (inactive) |
| CCOC(=O)C(=O)Nc1cc(Cl)c(Cl)cc1Cl | > 100 µM (inactive) | > 100 µM (inactive) |  | > 100 µM (inactive) | > 100 µM (inactive) | > 100 µM (inactive) | > 100 µM (inactive) | > 100 µM (inactive) | > 100 µM (inactive) | > 100 µM (inactive) | > 100 µM (inactive) | > 100 µM (inactive) | > 100 µM (inactive) | > 100 µM (inactive) | > 100 µM (inactive) | > 100 µM (inactive) | > 100 µM (inactive) |
| CCCCCCCCCCCCCC(=O)OC1CC(=O)OC1CO (configuration not stated) | 32.8 µM (inactive) | 33.6 µM (inactive) |  | > 100 µM (inactive) | 64 µM (inactive) | > 100 µM (inactive) | > 100 µM (inactive) | 79.6 µM (inactive) | > 100 µM (inactive) | 19.2 µM (inactive) | 28.2 µM (inactive) | 81.1 µM (inactive) | 22.9 µM (inactive) | 46 µM (inactive) | > 100 µM (inactive) | > 100 µM (inactive) | > 100 µM (inactive) |
